In experiment [1] the test system is isolated liver rough endoplasmic reticulum (RER). The class given is biochemical, rat.
Experiment [2] has the same test system. The class given is biochemical, rat. The source holds these as a separate data set.

On to `ClCOCCl` [Bis(Chloromethyl)ether], for which the “Degranulation (%)” value in experiment [1] was determined as 47. %.
As for EDTA, in experiment [2], the “degranulation obtained from RNA/protein ratios” value stood at 59.8%.
As for Aflatoxin B1, the “Degranulation (%)” value in experiment [1] is given as 1-3%.
On the same count and under the same terms, in the case of `CCC1(c2ccccc2)C(=O)NC(=O)NC1=O` [Phenobarbital] it was 0-6%; in that of `NN` [Hydrazine], 2 - 4%.

These data come from publication PMC2009656 (British Journal of Cancer, 1978).
